Where two headings read alike, the source gives them in different places.
Test: Tibolone impurities (A, B, C, total except C) in tablets by HPLC just after production and during storage (stability)
Assay type: physicochemical
Procedure: Tibolone tablets were manufactured by a conventional direct compression process. Briefly, the raw materials were weighed, sieved and homogenized. Following homogenization, the mixture was compressed into tablets. Just after production (i.e. at t=0), the tablets were analyzed for tibolone impurities by a chromatography (HPLC) method that allows a suitable separation between the peaks of impurities A, B and C (Tibolone degradation products described in the current European Pharmacopeia Monograph 1739) under the following conditions: • Equipment: HPLC system • Pre-column: Universal RP, EC 4/3 • Stationary phase: Nucleodur 100-3 C18ec Particulars' diameter: 3 μm • Length: 150 mm • Internal diameter: 4.6 mm • Mobile phase: • Solvent A: water for chromatography R • Solvent B: Acetonitrile for chromatography R • Gradient program: […]
The tablets were packed into PVC/Aluminium blisters and stored either 1) at a temperature of 25° C. and a relative humidity of 60% (long term stability conditions for Zone II), 2) at a temperature of 40° C. and a relative humidity of 75% (accelerated stability conditions), or 3) at ambient conditions (laboratory conditions, less than 25° C., no humidity control). After 1, 2, 3 and/or 6 months of storage (up to 18 months for batches #2 and #3), the tablets were analyzed for tibolone impurities.

Compound | stabilizing effect on tibolone in the tablets (in words) | stabilizing effect on tibolone in the tablets (in words) (excipient added to tibolone tablets)
CCCCCCCCCCCCCCCC(=O)OC[C@H](O)[C@H]1OC(=O)C(O)=C1O [ascorbyl palmitate] | additional stabilizing effect | –
O=C(O)CN(CCN(CC(=O)O)CC(=O)O)CC(=O)O [EDTA] | – | does not further stabilize

Reference: US10736907B2, “Use of sugar-alcohols in tibolone compositions” (Mithra Pharmaceuticals S.A., priority 2016, dated 2020)
